Where a SMILES comes first, the peptide text is derived from it. [ ]: non-standard residue; d: D form. ξ: configuration not given here. ξBip(2'-Et-4'-OMe) = CCc1cc(OC)ccc1-c1ccc(CC(N)C(=O)O)cc1; Arg(NO2) = N=C(NCCC[C@H](N)C(=O)O)N[N+](=O)[O-]; ξαMePhe(2,6-F2) = CC(N)(Cc1c(F)cccc1F)C(=O)O; ξαMePhe(2-F) = CC(N)(Cc1ccccc1F)C(=O)O; hhPhe = N[C@@H](CCCc1ccccc1)C(=O)O; hArg = N=C(N)NCCCC[C@H](N)C(=O)O; hCit = NC(=O)NCCCC[C@H](N)C(=O)O; Cit = NC(=O)NCCC[C@H](N)C(=O)O; Nle = CCCC[C@H](N)C(=O)O; Orn = NCCC[C@H](N)C(=O)O; Ac5c = NC1(C(=O)O)CCCC1; Ac3c = NC1(C(=O)O)CC1; Aib = CC(C)(N)C(=O)O
Assays:
Assay type in all cases: in vitro ADME
[1] = Stability of peptides in human plasma; conditions: human, plasma; for metabolised at 24 h, 2 μM: pH 7.8
Summary of the method: (§1)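 Peptides at 2 μM final incubated 0–24 h at 37 °C (50 mM triethanolamine-HCl, pH 7.8) in each matrix, matrix level set to degrade ~50% PTH(1-34) in 1 h; TFA-quenched, C18 HPLC at 206 nm with ESI-MS peak identification; percent degradation from peak areas at each time point.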

[2] = Stability of peptides in simulated intestinal fluid (pH 7.5); conditions: pH 7.5; for % degradation of peptides in 24 h when incubated with simulated intestinal fluid: 2 μM
Summary of the method: as §1

[3] = Stability of peptides in human liver microsomes; conditions: human, microsomes; for % degradation of peptides in 24 h when incubated with liver microsomes: 2 μM, pH 7.8
Summary of the method: as §1

[4] = Stability of peptides in simulated gastric fluid (pH 1.5; HCl, NaCl and Pepsin); conditions: pH 1.5; for % degradation of peptides in 24 h when incubated with simulated gastric fluid: 2 μM

Compound | half-life [1] [h] | metabolised at 24 h, 2 μM [1] [%] | half-life ([2]; simulated gi fluid) [h] | % degradation of peptides in 24 h when incubated with simulated intestinal fluid [2] [%] | half-life [3] [h] | % degradation of peptides in 24 h when incubated with liver microsomes [3] [%] | % degradation of peptides in 24 h when incubated with simulated gastric fluid [4] [%] | half-life ([4]; simulated gi fluid) [h] | half-life (t1/2) in liver microsomes [3] | half-life (t1/2) in simulated intestinal fluid ([2]; simulated gi fluid) | half-life (t1/2) in simulated gastric fluid ([4]; simulated gi fluid)
CCCC[C@H](NC(=O)C(C)(Cc1c(F)cccc1F)NC(=O)[C@H](CCC(N)=O)NC(=O)[C@@H](NC(=O)[C@H](CCC(=O)O)NC(=O)C1(NC(=O)[C@@H](NC(=O)C(C)(C)N)C(C)C)CC1)[C@@H](C)CC)C(=O)N[C@@H](Cc1c[nH]cn1)C(=O)N[C@@H](CCC(N)=O)C(=O)N[C@@H](CCCCNC(=N)N)C(=O)N[C@@H](C)C(=O)N[C@@H](CCCNC(=N)N[N+](=O)[O-])C(=O)NC(C)(Cc1ccccc1F)C(=O)N[C@@H](CCCc1ccccc1)C(N)=O (some centres unmarked) [Seq. ID. 720] (H-[Aib]V[Ac3c]EIQ[ξαMePhe(2,6-F2)][Nle]HQ[hArg]A[Arg(NO2)][ξαMePhe(2-F)][hhPhe]-NH2) | > 20 | 10 | > 24 | 00 | 2 | 86 | 50 | 4 | – | – | –
CCCC[C@H](NC(=O)[C@H](CC(C)C)NC(=O)[C@H](CCC(N)=O)NC(=O)[C@@H](NC(=O)[C@H](CCC(=O)O)NC(=O)C(C)(C)NC(=O)[C@@H](NC(=O)C(C)(C)N)C(C)C)[C@@H](C)CC)C(=O)N[C@@H](Cc1c[nH]cn1)C(=O)N[C@@H](CCC(N)=O)C(=O)N[C@@H](CCCCNC(=N)N)C(=O)N[C@@H](C)C(=O)N[C@@H](CCCNC(=N)N)C(=O)NC(Cc1ccc(-c2ccc(OC)cc2CC)cc1)C(=O)N[C@@H](CCCc1ccccc1)C(N)=O (some centres unmarked) [Seq. ID. 730] (H-[Aib]V[Aib]EIQL[Nle]HQ[hArg]AR[ξBip(2'-Et-4'-OMe)][hhPhe]-NH2) | > 22 | 5 | > 24 | 00 | 2 | 84 | 55 | 4 | – | – | –
CCCC[C@H](NC(=O)[C@H](CC(C)C)NC(=O)[C@H](CCC(N)=O)NC(=O)[C@@H](NC(=O)[C@H](CCC(=O)O)NC(=O)C(C)(C)NC(=O)[C@@H](NC(=O)C(C)(C)N)C(C)C)[C@@H](C)CC)C(=O)N[C@@H](Cc1c[nH]cn1)C(=O)N[C@@H](CCC(N)=O)C(=O)N[C@@H](CCCN)C(=O)N[C@@H](C)C(=O)NC(C)(C)C(=O)NC(Cc1ccc(-c2ccc(OC)cc2CC)cc1)C(=O)N[C@@H](CCCc1ccccc1)C(N)=O (some centres unmarked) [Seq. ID. 750] (H-[Aib]V[Aib]EIQL[Nle]HQ[Orn]A[Aib][ξBip(2'-Et-4'-OMe)][hhPhe]-NH2) | > 23 | 9 | > 24 | 00 | 2 | 85 | 45 | 4 | – | – | –
CCCC[C@H](NC(=O)[C@H](CC(C)C)NC(=O)[C@H](CCC(N)=O)NC(=O)[C@@H](NC(=O)[C@H](CCC(=O)O)NC(=O)C(C)(C)NC(=O)[C@@H](NC(=O)C(C)(C)N)C(C)C)[C@@H](C)CC)C(=O)N[C@@H](Cc1c[nH]cn1)C(=O)N[C@@H](CCC(N)=O)C(=O)N[C@@H](CCCCNC(N)=O)C(=O)NC(C)(C)C(=O)NC(C)(C)C(=O)NC(Cc1ccc(-c2ccc(OC)cc2CC)cc1)C(=O)N[C@@H](CCCc1ccccc1)C(N)=O (some centres unmarked) [Seq. ID. 790] (H-[Aib]V[Aib]EIQL[Nle]HQ[hCit][Aib][Aib][ξBip(2'-Et-4'-OMe)][hhPhe]-NH2) | > 24 | 0 | > 24 | 00 | 2 | 84 | 43 | 4 | – | – | –
CCCC[C@H](NC(=O)[C@H](CC(C)C)NC(=O)[C@H](CCC(N)=O)NC(=O)[C@@H](NC(=O)[C@H](CCC(=O)O)NC(=O)C(C)(C)NC(=O)[C@@H](NC(=O)C1(N)CCCC1)C(C)C)[C@@H](C)CC)C(=O)N[C@@H](Cc1c[nH]cn1)C(=O)N[C@@H](CCC(N)=O)C(=O)NC(C)(Cc1c(F)cccc1F)C(=O)NC(C)(C)C(=O)N[C@@H](CCCNC(N)=O)C(=O)NC(Cc1ccc(-c2ccc(OC)cc2CC)cc1)C(=O)N[C@@H](CCCc1ccccc1)C(N)=O (some centres unmarked) [Seq. ID. 805] (H-[Ac5c]V[Aib]EIQL[Nle]HQ[ξαMePhe(2,6-F2)][Aib][Cit][ξBip(2'-Et-4'-OMe)][hhPhe]-NH2) | > 24 | 0 | > 24 | 00 | 2 | 82 | 49 | 4 | – | – | –
CCCC[C@H](NC(=O)C(C)(Cc1c(F)cccc1F)NC(=O)[C@H](CCC(N)=O)NC(=O)[C@@H](NC(=O)[C@H](CCC(=O)O)NC(=O)C(C)(C)NC(=O)[C@@H](NC(=O)C1(N)CCCC1)C(C)C)[C@@H](C)CC)C(=O)N[C@@H](Cc1c[nH]cn1)C(=O)N[C@@H](CCC(N)=O)C(=O)N[C@@H](CCCCNC(=N)N)C(=O)N[C@@H](C)C(=O)N[C@@H](CCCNC(=N)N)C(=O)NC(Cc1ccc(-c2ccc(OC)cc2CC)cc1)C(=O)N[C@@H](CCCc1ccccc1)C(N)=O (some centres unmarked) [Seq. ID. 811] (H-[Ac5c]V[Aib]EIQ[ξαMePhe(2,6-F2)][Nle]HQ[hArg]AR[ξBip(2'-Et-4'-OMe)][hhPhe]-NH2) | > 24 | 0 | > 24 | 00 | 2 | 81 | 52 | 4 | – | – | –
CCCC[C@H](NC(=O)C(C)(Cc1c(F)cccc1F)NC(=O)[C@H](CCC(N)=O)NC(=O)[C@@H](NC(=O)[C@H](CCC(=O)O)NC(=O)C(C)(C)NC(=O)[C@@H](NC(=O)C1(N)CCCC1)C(C)C)[C@@H](C)CC)C(=O)N[C@@H](Cc1c[nH]cn1)C(=O)N[C@@H](CCC(N)=O)C(=O)N[C@@H](CCCN)C(=O)N[C@@H](C)C(=O)N[C@@H](CCCNC(N)=O)C(=O)NC(Cc1ccc(-c2ccc(OC)cc2CC)cc1)C(=O)N[C@@H](CCCc1ccccc1)C(N)=O (some centres unmarked) [Seq. ID. 829] (H-[Ac5c]V[Aib]EIQ[ξαMePhe(2,6-F2)][Nle]HQ[Orn]A[Cit][ξBip(2'-Et-4'-OMe)][hhPhe]-NH2) | > 23 | 1 | > 22 | 05 | 2 | 84 | 43 | 4 | – | – | –
CCCC[C@H](NC(=O)C(C)(Cc1c(F)cccc1F)NC(=O)[C@H](CCC(N)=O)NC(=O)[C@@H](NC(=O)[C@H](CCC(=O)O)NC(=O)C(C)(C)NC(=O)[C@@H](NC(=O)C(C)(C)N)C(C)C)[C@@H](C)CC)C(=O)N[C@@H](Cc1c[nH]cn1)C(=O)N[C@@H](CCC(N)=O)C(=O)N[C@@H](CCCN)C(=O)NC(C)(C)C(=O)NC(C)(Cc1c(F)cccc1F)C(=O)NC(Cc1ccc(-c2ccc(OC)cc2CC)cc1)C(=O)N[C@@H](CCCc1ccccc1)C(N)=O (some centres unmarked) [Seq. ID. 840] (H-[Aib]V[Aib]EIQ[ξαMePhe(2,6-F2)][Nle]HQ[Orn][Aib][ξαMePhe(2,6-F2)][ξBip(2'-Et-4'-OMe)][hhPhe]-NH2) | > 24 | 0 | > 24 | 00 | – | 33 | 00 | > 24 | (5) h | – | –
CCCC[C@H](NC(=O)C(C)(Cc1c(F)cccc1F)NC(=O)[C@H](CCC(N)=O)NC(=O)[C@@H](NC(=O)[C@H](CCC(=O)O)NC(=O)C(C)(C)NC(=O)[C@@H](NC(=O)C(C)(C)N)C(C)C)[C@@H](C)CC)C(=O)N[C@@H](Cc1c[nH]cn1)C(=O)N[C@@H](CCC(N)=O)C(=O)N[C@@H](CCCCNC(N)=O)C(=O)N[C@@H](C)C(=O)N[C@@H](CCCNC(N)=O)C(=O)NC(Cc1ccc(-c2ccc(OC)cc2CC)cc1)C(=O)N[C@@H](CCCc1ccccc1)C(N)=O (some centres unmarked) [Seq. ID. 860] (H-[Aib]V[Aib]EIQ[ξαMePhe(2,6-F2)][Nle]HQ[hCit]A[Cit][ξBip(2'-Et-4'-OMe)][hhPhe]-NH2) | 8 | 77 | – | 45 | 1 | 81 | 14 | – | – | (6) h | (8) h
CCCC[C@H](NC(=O)C(C)(Cc1c(F)cccc1F)NC(=O)[C@H](CCC(N)=O)NC(=O)[C@@H](NC(=O)[C@H](CCC(=O)O)NC(=O)C(C)(C)NC(=O)[C@@H](NC(=O)C(C)(C)N)C(C)C)[C@@H](C)CC)C(=O)N[C@@H](Cc1c[nH]cn1)C(=O)N[C@@H](CCC(N)=O)C(=O)NC(C)(Cc1c(F)cccc1F)C(=O)N[C@@H](C)C(=O)NC(C)(Cc1c(F)cccc1F)C(=O)NC(Cc1ccc(-c2ccc(OC)cc2CC)cc1)C(=O)N[C@@H](CCCc1ccccc1)C(N)=O (some centres unmarked) [Seq. ID. 880] (H-[Aib]V[Aib]EIQ[ξαMePhe(2,6-F2)][Nle]HQ[ξαMePhe(2,6-F2)]A[ξαMePhe(2,6-F2)][ξBip(2'-Et-4'-OMe)][hhPhe]-NH2) | > 24 | 0 | > 24 | 00 | – | 31 | 00 | > 24 | (5) h | – | –

Reference: patent US8383581B2, “Short-chain peptides as parathyroid hormone (PTH) receptor agonist” (Cadila Healthcare Limited, priority 2009, dated 2013)
